Where two headings read alike, the source gives them in different places.
Key:
[1] = tested on: Panc-1 human pancreatic xenograft; assay: Panc-1 human pancreatic tumor xenograft in nude mice; type: in vivo; details: for Final Tumor weight Day 25 (Mean): BNC-1 20 mg/ml s.c. osmotic pump, tumor weight in mg
Source text: (§1) Female nude mice (nu/nu) between 5 and 6 weeks of age weighing approximately 20 g were implanted subcutaneously (s.c.) by trocar with fragments of human tumors harvested from s.c. grown tumors in nude mice hosts. […] Each group contains 8-10 mice, each of which was ear tagged and followed throughout the experiment.
(§2) The administration of drugs or controls began the day the animals were pair-matched (Day 1). […] Mice were weighed and tumor measurements were obtained using calipers twice weekly, starting Day 1. These tumor measurements were converted to mg tumor weight by standard formula, (W^2×L)/2. The experiment is terminated when the control group tumor size reached an average of about 1 gram. Upon termination, the mice were weighed, sacrificed and their tumors excised. The tumors were weighed and the mean tumor weight per group was calculated.
(§3) The control animals received pumps containing vehicle (50% DMSO in DMEM). The mice treated with standard chemotherapy agent received intra-peritoneal injections of Gemcitabine at 40 mg/kg every 3 days for 4 treatments (q3d×4). Each data point represent average tumor weight (n=8) and error bars indicate SEM.
as §3

[2] = tested on: several different cancer cell lines; assay: proliferation of cancer cell lines (ouabain IC50); type: cell-based; details: read-out: IC50 across several different cancer cell lines
[3] = tested on: A549(ROS) Sentinel Line; assay: ROS levels by FACS in A549(ROS) cells; type: cell-based, human; details: normoxia, 4 hrs
Protocol: Thirty minutes prior to the termination of incubation period, 2,7-dichlorofluorescin diacetate (CFH-DA, […]) was added to the cells and incubated for the last 30 min at 37° C. The ROS levels were determined by FACS analysis.

[4] = tested on: cats; details: cited from earlier work
[5] = tested on: panel of 10 cancer cell lines; assay: cytotoxicity against a panel of 10 cancer cell lines; type: cell-based; details: read-out: median IC50
[6] = target: Na+/K+-ATPase α peptide isoforms; details: read-out: Kd of ouabain for the four α peptide isoforms; almost all mammalian species; cited from earlier work
[7] = tested on: A549 human non-small-cell-lung carcinoma; assay: A549 human non-small-cell-lung carcinoma xenograft in nude mice; details: for % TGI: A549, Day 38; for Final Tumor weight Day 38 (Mean): A549, tumor weight in mg; for Final Tumor weight Day 38 (Mean) / % Weight Change at Day 38: BNC-1 20 mg/ml s.c. pump, Carboplatin 100 mg/kg ip; for % Weight Change at Day 38: A549 xenograft mice; for signs of tumor at the end of the experiment: A549 xenograft, 8 animals per group
Source text: as §1, §2
Carboplatin (qldxl) was injected at 100 mg/kg (Carb).

[8] = tested on: Caki-1 human renal cancer xenograft; type: in vivo, nude mice; details: for % TGI: Caki-1, Day 22; for % TGI / Final Tumor weight Day 22 (Mean): BNC-1 20 mg/ml s.c. pump, Cytoxan 300 or 100 ip; for Final Tumor weight Day 22 (Mean): tumor weight in mg
Source text: as §1, §2

[9] = human pharmacokinetics (literature); details: species not stated
[10] = tested on: VEGF; assay: VEGF secretion in tumor cells; type: cell-based; details: FIG. 8
[11] = cited from earlier work
[12] = tested on: Na+/K+-ATPase; details: Erdmann E 1978; cited from earlier work
[13] = tested on: A549 Sentinel Line; assay: Sentinel Line reporter assay (beta-gal, FACS); type: cell-based, human; details: agent alone, 40 hrs, FACS
Protocol: The expression level of beta-galactosidase gene in sentinel lines was determined by using a fluorescent substrate fluorescein di-B-D-Galactopyranside (FDG, Marker Gene Tech, #M0250) introduced into cells by hypotonic shock. Cleavage by beta-galactosidase results in the production of free fluorescein, which is unable to cross the plasma membrane and is trapped inside the beta-gal positive cells. Briefly, the cells to be analyzed are trypsinized, and resuspended in PBS containing 2 mM FDG (diluted from a 10 mM stock prepared in 8:1:1 mixture of water: ethanol: DMSO). The cells were then shocked for 4 minutes at 37° C. and transferred to FACS tubes containing cold 1×PBS on ice. Samples were kept on ice for 30 minutes and analyzed by FACS in FLI channel.
Sentinel Line cells with beta-galactosidase reporter gene were plated at 1×10^5 cells/10 cm dish. […] After 40 hrs, the cells were trypsinized and the expression level of reporter gene was determined by FDG loading.
The reporter activity was measured by FACS analysis.

[14] = target: T1, Na+/K+-ATPase (Canis lupus familiaris, UniProt P50997); assay: Na+/K+-ATPase inhibition; type: biochemical, dog
T1 construct: enzyme preparation from dog kidney (Sigma); purchased Sigma; host or cells: dog kidney tissue
Protocol: (§4) Anti-prolerafitive IC50 values were determined by MTS assay using an A549 cell line. Na^+/K^+-ATPase inhibition IC50 values were obtained using enzyme preparation from dog kidney (Sigma).

[15] = tested on: A549 cell line; assay: anti-proliferation MTS assay in A549 cell line; type: cell-based; details: Homo sapiens
Protocol: as §4

[16] = tested on: HIF-1α; assay: Western blot using anti-HIF-1α antibody (Example XVI); type: cell-based; details: 1 μM
[17] = tested on: rats; details: adult; cited from earlier work
[18] = Panc-1, Gemcitabine 40 mg/kg q3d×4

C[C@@H]1O[C@@H](O[C@H]2C[C@@H](O)[C@]3(CO)[C@H]4[C@H](O)C[C@]5(C)[C@@H](C6=CC(=O)OC6)CC[C@]5(O)[C@@H]4CC[C@]3(O)C2)[C@H](O)[C@H](O)[C@H]1O [BNC-1, ouabain]
% TGI ([1]; Panc-1, Day 25, BNC-1 20 mg/ml s.c. pump, Gemcitabine 40 mg/kg q3d×4): 82.15% | Final Tumor weight Day 25 (Mean) [1, 18]: 200 | IC50 [2]: 15 to 600 nM | ROS production [3]: induces ROS production | intravenous toxicity [4]: 0.133 mg/kg | toxicity on duodenal administration [4]: 5.3 mg/kg | IC50 [5]: 78 nM | Kd [6]: ≤ 1 nM | % TGI [7]: 100.00% | Final Tumor weight Day 38 (Mean) [7]: 0.0 | % Weight Change at Day 38 [7]: 21% | signs of tumor at the end of the experiment [7]: none of the experimental animals showed any signs of tumor | % TGI [8]: 81.45% | Final Tumor weight Day 22 (Mean) ([8]; Caki-1): 314.9 | max. plasma concentration [9]: about 0.03 μg/mL | toxic serum concentration at day 1 (serum level at MTD) (mice): about 50±21 ng/ml | therapeutic serum concentration required to achieve >60% TGI (steady state, xenograft nude mouse): about 20±15 ng/ml | secretion of VEGF in tumor cells [10]: directly or indirectly inhibits | plasma half-life in human ([11]; according to the literature): about 20 hours | plasma half-life in human, range ([11]; according to the literature): 5 to 50 h | order of Na+/K+-ATPase-inhibition [12]: Ouabain<Digoxin<Proscillaridin

COc1cc2ncnc(Nc3ccc(F)c(Cl)c3)c2cc1OCCCN1CCOCC1 [Iressa]
reporter activity in Sentinel Lines [13]: reduction in reporter activity

Nc1ccn([C@@H]2O[C@H](CO)[C@@H](O)C2(F)F)c(=O)n1 [Gemcitabine, gemcitabine]
reporter activity in Sentinel Lines [13]: elevated reporter activity | Final Tumor weight Day 25 (Mean) [1, 18]: 701.3 | TGI ([1]; Panc-1, BNC-4 15 mg/ml s.c. pump, Gemcitabine 40 mg/kg q3d×4): 65% | % TGI ([1]; mouse, in vivo): 37.40%

C[C@H]1O[C@@H](O[C@H]2[C@@H](O)C[C@H](O[C@H]3[C@@H](O)C[C@H](O[C@H]4CC[C@@]5(C)[C@H](CC[C@@H]6[C@@H]5C[C@@H](O)[C@]5(C)[C@@H](C7=CC(=O)OC7)CC[C@]65O)C4)O[C@@H]3C)O[C@@H]2C)C[C@H](O)[C@@H]1O [Digoxin]
IC50 [5]: 37 nM | Volume-of-Distribution (VD) ([11]; in vivo): 650 L | order of Na+/K+-ATPase-inhibition [12]: Ouabain<Digoxin<Proscillaridin

CC(=O)OC1C=C2CCC3C4=CC[C@H](c5ccc(=O)oc5)[C@@]4(C)CCC3[C@@]2(C)CC1 (some centres unmarked) [BNC-147]
IC50 [14]: 65000 nM | IC50 [15]: 11500 nM

O=C1c2c(O)ccc(O)c2C(=O)c2c(NCCNCCO)ccc(NCCNCCO)c21 [mitoxanthrone, mitoxantrone]
reporter activity in Sentinel Lines [13]: increases in cell death and reporter activity

O=P1(N(CCCl)CCCl)NCCCO1 (centres unmarked) [Cytoxan]
% TGI [8]: 94.48% | % TGI ([8]; listed as Cytoxan100): 54.70% | Final Tumor weight Day 22 (Mean) ([8]; Caki-1): 93.7 | Final Tumor weight Day 22 (Mean) ([8]; Caki-1, listed as Cytoxan100): 769 | TGI ([8]; Caki-1, Cytoxan 100 mg/kg alone, positive control): 92%

C[C@@H]1OC(OC2C=C3CCC4C5=CC[C@H](c6ccc(=O)oc6)[C@@]5(C)CCC4[C@@]3(C)CC2)[C@H](O)[C@H](O)[C@H]1O (some centres unmarked) [BNC-151]
HIF-1α expression [16]: Significant inhibition | IC50 [14]: 1380 nM | IC50 [15]: 260 nM

C[C@H]1O[C@@H](O[C@H]2[C@@H](O)C[C@H](O[C@H]3[C@@H](O)C[C@H](O[C@H]4CC[C@@]5(C)[C@H](CC[C@@H]6[C@@H]5CC[C@]5(C)[C@@H](C7=CC(=O)OC7)CC[C@]65O)C4)O[C@@H]3C)O[C@@H]2C)C[C@H](O)[C@@H]1O [Digitoxin]
LD50 p.o. [17]: 0.1 mg/kg

N.N.O=C([O-])C1(C(=O)[O-])CCC1.[Pt+2] [Carboplatin]
reporter activity in Sentinel Lines [13]: increases in cell death and reporter activity | % TGI [7]: 39.50% | Final Tumor weight Day 38 (Mean) [7]: 509.75 | % Weight Change at Day 38 [7]: 16% | signs of tumor at the end of the experiment [7]: developed tumors of significant sizes

CC(=O)O[C@H]1C(=O)[C@@]2(C)[C@H]([C@H](OC(=O)c3ccccc3)[C@]3(O)C[C@H](OC(=O)[C@H](O)[C@@H](NC(=O)c4ccccc4)c4ccccc4)C(C)=C1C3(C)C)[C@]1(OC(C)=O)CO[C@@H]1C[C@@H]2O [paclitaxel]
reporter activity in Sentinel Lines [13]: increases in cell death and reporter activity
